Earlier results as cited in patent publication US7842720B2, “Anticancer and antiprotozoal dihydroartemisinene and dihydroartemisitene dimers with desirable chemical functionalities” (Elsohly Laboratories, Incorporated, priority 2004, dated 2010).

Experiments:
[1] = tested on: chloroquine-sensitive and chloroquine-resistant strains of Plasmodium falciparum
malaria = conditions: comparison among artemisinin derivatives

C[C@@H]1CC[C@H]2[C@@H](C)C(=O)O[C@@H]3O[C@@]4(C)CC[C@@H]1[C@]32OO4 [artemisinin]
anti-malarial activity [1]: anti-malarial activity

C[C@H]1[C@H](OC(=O)CCC(=O)[O-])O[C@@H]2O[C@@]3(C)CC[C@H]4[C@H](C)CC[C@@H]1[C@@]24OO3.[Na+] [sodium artesunate]
anti-malarial activity relative to comparator (malaria): more activity
